{"source": "patent US10739333B2", "about": "“Methods of BH3 profiling” (Dana-Farber Cancer Institute, Inc., priority 2013, dated 2020)", "key": {"MDA-MB-231": {"test_system": "MDA-MB-231", "assay": "BH3 profiling in pre-made frozen versus freshly prepared plates (FIG. 5)", "assay_type": "cell-based", "conditions": "responsive cells MDA-MB-231", "description": "Also included in the invention are kits for performing BH3 Profiling using whole cells. The kit consists of a multi-well plate containing staining components in a mitochondrial buffer and a tube of mitochondrial buffer for the suspension and dispensing of cells into the plate for analysis. Each well of the multi-well plate contains a mixture of JC-1 dye, oligomycin, 2-mercaptoethanol, digitonin, and a peptide or small molecule at twice their final concentration, Optionally the plate and suspension buffer tube can be frozen for later use along with the suspension buffer tube. To use, the plate and buffer tube are thawed and brought to room temperature. Cells are suspended in buffer, dispensed into the wells of the plate, and analyzed in a fluorescence plate reader using the JC-1 red fluorescence at 590 nm with excitation at 545 nm."}, "SuDHL4 cell line": {"test_system": "SuDHL4 cell line", "assay": "miBH3 profile of the SuDHL4 cell line (FIG. 4)", "assay_type": "cell-based", "conditions": "FIG. 4A, matches other BH3 profiling methods in FIG. 4B", "method": "BH3 profiling can be accomplished at the single cell level by immobilizing cells on a solid surface. Optionally the solid surface is polyamine or poly-lysine coated. Immobilized cells are permeabilized as described above. The cells are then contacted with BH3 peptides and/or test agents. After the cells have been treated for a predetermined period of time such as 45-90 minutes, the cells are fixed and further permeabilized by methods known in the art. For example the cells are fixed with formaldehyde and further permeabilized with methanol or Triton X-100 (t-Octylphenoxypolyethoxyethanol). Outer membrane permeabilization is determined by intracellular staining for molecules from the mitochondrial inter-membrane space and a mitochondrial marker. Examples of molecules that can be measured include cytochrome c, SMAC/Diablo, Omi, adenylate kinase-2 or apoptosis inducing factor (AIF). A mitochondrial marker includes MnSOD. Stained cells can be counterstained with nuclear stains such as DAPI. Optionally other intracellular and extracellular markers can be measured. […]\nMicroBH3 (miBH3) is a BH3 profiling method where the measurement of the mitochondrial effect of […] peptides have on individual cells by microscopy. […] Fixed cells by this method can be readily stopped at the fixation step and can be analyzed weeks after acquisition as well as readily re-analyzed if needed."}}, "data": [{"substance": "BAD: BH3 domain peptide LWAAQRYGRELRRMSDEFEGSFKGL, SEQ ID NO 4", "values": [{"measurement": "response to peptide treatment in frozen and freshly prepared plates", "setting": "MDA-MB-231", "result": "comparable response"}, {"measurement": "release of cytochrome c / loss of correlation between cytochrome c and MnSOD channels", "setting": "SuDHL4 cell line", "result": "Release of cytochrome c and loss of correlation"}]}]}
